Assay [1] concerns the target T1, Interstitial collagenase (Homo sapiens, UniProt P03956).
T1 sequence (P03956 whole entry): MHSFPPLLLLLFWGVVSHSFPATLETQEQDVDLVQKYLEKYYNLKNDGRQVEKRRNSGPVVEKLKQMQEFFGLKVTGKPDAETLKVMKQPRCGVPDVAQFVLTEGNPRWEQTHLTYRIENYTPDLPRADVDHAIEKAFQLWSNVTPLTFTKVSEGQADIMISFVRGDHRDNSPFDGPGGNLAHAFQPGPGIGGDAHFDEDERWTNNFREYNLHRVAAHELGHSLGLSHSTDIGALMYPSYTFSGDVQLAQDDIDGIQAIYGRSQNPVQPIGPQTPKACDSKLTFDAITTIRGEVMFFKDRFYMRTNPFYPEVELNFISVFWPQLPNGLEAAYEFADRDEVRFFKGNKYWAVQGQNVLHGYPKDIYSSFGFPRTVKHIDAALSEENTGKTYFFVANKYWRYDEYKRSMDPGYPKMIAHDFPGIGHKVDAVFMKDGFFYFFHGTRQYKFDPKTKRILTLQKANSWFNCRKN
Put plainly: Inhibition of matrix metalloprotease -1.

Assay [2] has as its target T2, 72 kDa type IV collagenase (Homo sapiens, UniProt P08253). Put plainly: Inhibition of MMP-2.
Target sequence in this assay (P08253 whole entry): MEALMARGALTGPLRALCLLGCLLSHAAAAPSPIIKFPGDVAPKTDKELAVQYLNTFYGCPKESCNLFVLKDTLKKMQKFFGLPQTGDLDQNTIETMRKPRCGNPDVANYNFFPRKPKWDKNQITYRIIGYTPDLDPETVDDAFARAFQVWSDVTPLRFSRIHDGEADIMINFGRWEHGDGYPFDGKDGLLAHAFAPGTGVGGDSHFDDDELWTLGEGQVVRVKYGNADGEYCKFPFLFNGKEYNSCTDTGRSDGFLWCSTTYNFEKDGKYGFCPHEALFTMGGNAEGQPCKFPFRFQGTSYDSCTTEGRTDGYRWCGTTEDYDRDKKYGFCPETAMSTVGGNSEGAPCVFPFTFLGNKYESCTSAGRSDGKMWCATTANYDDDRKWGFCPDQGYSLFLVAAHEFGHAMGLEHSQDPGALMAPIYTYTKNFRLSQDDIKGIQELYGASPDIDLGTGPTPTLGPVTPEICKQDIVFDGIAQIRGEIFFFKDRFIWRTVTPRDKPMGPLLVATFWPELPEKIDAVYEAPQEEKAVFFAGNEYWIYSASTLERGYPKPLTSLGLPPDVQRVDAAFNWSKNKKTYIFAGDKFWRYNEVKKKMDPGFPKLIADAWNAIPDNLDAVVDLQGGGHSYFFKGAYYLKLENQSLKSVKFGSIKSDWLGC
Assay [3] deals with T3, Stromelysin-1 (Homo sapiens, UniProt P08254).
Assay [4] has as its target T2, 72 kDa type IV collagenase. Kind of assay: Inhibition of matrix metalloprotease-2 at 1 uM.
Target sequence in this assay (P08253 110-660 limits assumed): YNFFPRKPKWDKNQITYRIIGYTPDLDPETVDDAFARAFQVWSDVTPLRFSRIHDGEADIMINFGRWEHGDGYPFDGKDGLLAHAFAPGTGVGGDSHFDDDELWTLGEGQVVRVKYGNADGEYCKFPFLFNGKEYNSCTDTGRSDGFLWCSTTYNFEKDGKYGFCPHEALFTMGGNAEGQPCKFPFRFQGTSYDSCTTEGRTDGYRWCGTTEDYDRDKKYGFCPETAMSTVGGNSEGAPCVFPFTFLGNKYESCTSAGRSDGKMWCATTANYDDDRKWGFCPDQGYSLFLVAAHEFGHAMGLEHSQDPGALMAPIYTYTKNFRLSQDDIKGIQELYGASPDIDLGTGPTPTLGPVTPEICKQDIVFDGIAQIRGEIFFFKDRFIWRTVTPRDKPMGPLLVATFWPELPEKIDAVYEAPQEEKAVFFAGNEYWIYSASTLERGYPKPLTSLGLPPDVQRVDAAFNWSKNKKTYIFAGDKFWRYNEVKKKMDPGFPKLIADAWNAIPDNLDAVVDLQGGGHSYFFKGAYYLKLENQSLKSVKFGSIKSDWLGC
The target in assay [5] is T4, Interstitial collagenase (Homo sapiens) (UniProt P03956).
T4 sequence (whole entry): T1 sequence (P03956 whole entry)
Put plainly: Inhibition of matrix metalloprotease-1 at 10 uM.

The target of assay [6] is T2, 72 kDa type IV collagenase. Put plainly: Inhibition of matrix metalloprotease-2 at 1 uM.
Target sequence in this assay (P08253 110-660 limits assumed): as above
In assay [7] the target is T1, Interstitial collagenase. Put plainly: Inhibition of matrix metalloprotease -1.
Assay [8] has as its target T2, 72 kDa type IV collagenase. Put plainly: Inhibition of matrix metalloprotease-2.
Target sequence in this assay (P08253 whole entry): as the sequence (P08253 whole entry) above
In assay [9] the target is T3, Stromelysin-1. Put plainly: Inhibition of matrix metalloprotease -3.

For orientation: Ki means a dissociation constant, usually derived from enzyme kinetics or from competition with a known ligand. A high value points to a looser hold on the target. By inhibition is commonly meant the relative decrease from the control value, in per cent. Read a high inhibition as a response far below the control.

T3 sequence (P08254 whole entry): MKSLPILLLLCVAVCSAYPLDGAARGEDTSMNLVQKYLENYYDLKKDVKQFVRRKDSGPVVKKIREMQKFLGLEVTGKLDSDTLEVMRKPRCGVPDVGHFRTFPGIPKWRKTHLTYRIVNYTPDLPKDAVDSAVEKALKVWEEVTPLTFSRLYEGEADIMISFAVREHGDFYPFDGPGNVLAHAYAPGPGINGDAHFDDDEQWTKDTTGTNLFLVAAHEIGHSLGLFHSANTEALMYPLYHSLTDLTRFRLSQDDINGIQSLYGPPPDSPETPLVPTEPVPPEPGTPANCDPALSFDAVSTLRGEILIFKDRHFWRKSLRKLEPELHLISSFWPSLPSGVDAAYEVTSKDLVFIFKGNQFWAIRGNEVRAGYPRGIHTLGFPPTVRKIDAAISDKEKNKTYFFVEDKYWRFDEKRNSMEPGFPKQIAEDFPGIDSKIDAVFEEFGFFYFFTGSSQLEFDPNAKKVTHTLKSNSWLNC

For `CC(C)C[C@H](NC(=O)[C@H](CCc1ccccc1)N[C@H](CCCN1C(=O)c2ccccc2C1=O)C(=O)O)C(=O)Nc1ccccc1`, the Ki came out at 3400 nM at Interstitial collagenase [1], 570 nM in assay [2] and 140 nM on Stromelysin-1 [3].
The like results for `CC[C@@H](N[C@@H](CCc1ccccc1)C(=O)N[C@@H](CC(C)C)C(=O)Nc1ccccc1)C(=O)O` were, in that order, 1800 nM, 1100 nM and 350 nM.
As for `CC(C)C[C@H](NC(=O)[C@H](CCc1ccccc1)N[C@H](CCCCc1ccccc1)C(=O)O)C(=O)Nc1ccccc1`, the Ki amounted to 72 nM on Interstitial collagenase [1] and 120 nM at Stromelysin-1 [3]. The inhibition in assay [4] was 64%.
For the molecule `CC(C)C[C@H](NC(=O)[C@H](CCc1ccccc1)N[C@H](CCCNC(=O)Cc1ccccc1)C(=O)O)C(=O)Nc1ccccc1`, the Ki came out at 870 nM at Interstitial collagenase [1], 60 nM in assay [2] and 10 nM at Stromelysin-1 [3].
The corresponding values for `CC(C)C[C@H](NC(=O)[C@H](CCc1ccccc1)N[C@H](CCCCCNC(=O)Cc1ccccc1)C(=O)O)C(=O)Nc1ccccc1` are 5810 nM, 350 nM and 47 nM.
On to `CC(C)C[C@H](NC(=O)[C@H](CCc1ccccc1)N[C@H](CCNC(=O)CCCc1ccccc1)C(=O)O)C(=O)Nc1ccccc1`, for which the values for the inhibition constant Ki (on Interstitial collagenase [1]; in [2]; at Stromelysin-1 [3]) were 4410 nM, 770 nM and 270 nM, respectively.
As to `CC(C)C[C@H](NC(=O)[C@H](CCc1ccccc1)N[C@H](CCCNC(=O)c1ccccc1)C(=O)O)C(=O)Nc1ccccc1`, the inhibition in assay [4] and in [5] was 50% throughout. The same molecule had a Ki at Stromelysin-1 [3] of 270 nM.
Consider `CC(=O)N1CCCC1C(=O)NCCCC[C@@H](N[C@@H](CCc1ccccc1)C(=O)N[C@@H](CC(C)C)C(=O)Nc1ccccc1)C(=O)O` (stereo partly drawn), for which the Ki on Interstitial collagenase [1] was found to be 1100 nM; on Stromelysin-1 [3], 180 nM. Besides, in assay [4], the inhibition worked out at 91%.
Take `CC(C)C[C@H](NC(=O)[C@H](CCc1ccccc1)N[C@H](CCCCN1Cc2ccccc2C1=O)C(=O)O)C(=O)Nc1ccccc1`: the Ki on Interstitial collagenase [1] is 1600 nM; in [2], 110 nM; on Stromelysin-1 [3], 12 nM.
The corresponding values for `CC(C)C[C@H](NC(=O)[C@H](CCc1ccccc1)N[C@H](CCCCN1C(=O)c2ccccc2C1=O)C(=O)O)C(=O)Nc1ccccc1` are 720 nM, 86 nM and 8 nM.
Take `CC(C)C[C@H](NC(=O)[C@H](CCc1ccccc1)N[C@H](CCCNC(=O)CCc1ccccc1)C(=O)O)C(=O)Nc1ccccc1`: the Ki on Interstitial collagenase [1] stood at 2200 nM; at Stromelysin-1 [3], 9.5 nM. The same molecule returned an inhibition in assay [4] of 87%.
For the molecule `CCCCCC[C@@H](N[C@@H](CCc1ccccc1)C(=O)N[C@@H](CC(C)C)C(=O)Nc1ccccc1)C(=O)O`, the Ki in assay [2] turned out to be 2300 nM; on Stromelysin-1 [3] it was 530 nM. Also, the inhibition in [5] was 43%.
`CC(C)C[C@H](NC(=O)[C@H](CCc1ccccc1)N[C@H](CCNC(=O)c1ccccc1)C(=O)O)C(=O)Nc1ccccc1`: the Ki stood at 1090 nM at Interstitial collagenase [1] and 120 nM on Stromelysin-1 [3]. The inhibition in [6] stood at 72%.
Take `CC(C)C[C@H](NC(=O)[C@H](CCc1ccccc1)N[C@H](CCCCNC(=O)Cc1ccccc1)C(=O)O)C(=O)Nc1ccccc1`: the Ki on Interstitial collagenase [1] was found to be 7200 nM; in assay [2], 70 nM; at Stromelysin-1 [3] it was 28 nM.
Take `CC(C)C[C@H](NC(=O)[C@H](CCc1ccccc1)N[C@H](CCCNC(=O)CCCc1ccccc1)C(=O)O)C(=O)Nc1ccccc1`: the figures for the inhibition in assay [4] and in [5] were 70% and 36%, respectively. The molecule further showed a Ki on Stromelysin-1 [3] of 120 nM.
Turning to `CC(C)C[C@H](NC(=O)[C@H](CCc1ccccc1)N[C@H](CCN1C(=O)c2ccccc2C1=O)C(=O)O)C(=O)Nc1ccccc1`, the Ki on Interstitial collagenase [1] is 2090 nM; in assay [2], 20 nM; at Stromelysin-1 [3], 33 nM.
The like results for `CCCC[C@@H](N[C@@H](CCc1ccccc1)C(=O)N[C@@H](CC(C)C)C(=O)Nc1ccccc1)C(=O)O` were, in that order, 6800 nM, 1100 nM and 320 nM.
The corresponding values for `CC(C)C[C@H](NC(=O)[C@H](CCc1ccccc1)N[C@H](CCCCCNC(=O)c1ccccc1)C(=O)O)C(=O)Nc1ccccc1` are 3890 nM, 120 nM and 20 nM.
With `CNC(=O)[C@H](Cc1ccccc1)NC(=O)[C@H](CC(C)C)N[C@H](CCN1C(=O)c2cc3ccccc3cc2C1=O)C(=O)O`, the figures for the Ki (on Interstitial collagenase [7]; in assay [8]; on Stromelysin-1 [9]) were 5 nM, 91 nM and 20 nM, respectively.
For `CC(C)C[C@H](NC(=O)[C@H](CCc1ccccc1)N[C@H](CCNC(=O)CCc1ccccc1)C(=O)O)C(=O)Nc1ccccc1`, the Ki on Interstitial collagenase [1] was found to be 3330 nM; on Stromelysin-1 [3], 110 nM. This molecule also showed an inhibition in assay [4] of 41%.
`CC(C)C[C@H](NC(=O)[C@H](CCc1ccccc1)N[C@H](CCNC(=O)Cc1ccccc1)C(=O)O)C(=O)Nc1ccccc1`: the Ki on Interstitial collagenase [1] was 1790 nM; at Stromelysin-1 [3], 130 nM.
Regarding `CC(C)C[C@H](NC(=O)[C@H](CCc1ccccc1)N[C@H](CCCCNC(=O)CCc1ccccc1)C(=O)O)C(=O)Nc1ccccc1`, the Ki at Interstitial collagenase [1] was 13000 nM; on Stromelysin-1 [3], 190 nM. Also, the inhibition in assay [4] was determined as 49%.
On to `CC(C)C[C@H](NC(=O)[C@H](CCc1ccccc1)N[C@H](CCCCNC(=O)c1ccccc1)C(=O)O)C(=O)Nc1ccccc1`, for which the Ki at Interstitial collagenase [1] worked out at 5800 nM; in assay [2], 120 nM; at Stromelysin-1 [3], 32 nM.

For the origin of these results see ChEMBL document CHEMBL1151510, “Inhibition of matrix metalloproteinases by P1 substituted N-carboxyalkyl dipeptides” (Bioorg Med Chem Lett, 1996).
